The source of these data is article PMC12203311, “Design, synthesis, in silico and in vitro evaluation of pyrrole–indole hybrids as dual tubulin and aromatase inhibitors with potent anticancer activities” (RSC Advances, 2025).

One experiment has as its system CCRF-CEM. The experiment is described as follows: NCI60 five-dose screen. The format is cell-based. The settings on record: Homo sapiens, leukemia; for CC50: read-out: LC50 (the source's name).
The subject of the next experiment is SR. Briefly: NCI60 five-dose screen. The settings on record: Homo sapiens, leukemia; for CC50: read-out: LC50 (the source's name). The format is cell-based.
A further experiment has as its system HOP-92. Briefly: NCI60 five-dose screen. The format is cell-based. The conditions noted are these: Homo sapiens, HOP-92, NSC lung cancer; for CC50: read-out: LC50 (the source's name).
A further experiment deals with HT29. Briefly: NCI60 five-dose screen. The format is cell-based. The conditions noted are these: Homo sapiens, HT-29, HT29, colon cancer; for CC50: read-out: LC50 (the source's name).
For the next experiment, the system named is SF-539. The experiment is described as follows: NCI60 five-dose screen. The format is cell-based. The settings on record: Homo sapiens, SF-539, CNS cancer; for CC50: read-out: LC50 (the source's name).
A further experiment has as its system MALME-3M. Briefly: NCI60 five-dose screen. The class given is cell-based. The settings on record: Homo sapiens, melanoma; for CC50: read-out: LC50 (the source's name).
The target of another experiment is T1, porcine brain tubulin (Sus scrofa, UniProt P02550+P02554).
T1 construct: a solution containing porcine brain tubulin (2 mg mL^−1); purchased Cytoskeleton BK011P; host or cells: porcine brain (tissue-purified)
T1 sequence (P02554 whole entry): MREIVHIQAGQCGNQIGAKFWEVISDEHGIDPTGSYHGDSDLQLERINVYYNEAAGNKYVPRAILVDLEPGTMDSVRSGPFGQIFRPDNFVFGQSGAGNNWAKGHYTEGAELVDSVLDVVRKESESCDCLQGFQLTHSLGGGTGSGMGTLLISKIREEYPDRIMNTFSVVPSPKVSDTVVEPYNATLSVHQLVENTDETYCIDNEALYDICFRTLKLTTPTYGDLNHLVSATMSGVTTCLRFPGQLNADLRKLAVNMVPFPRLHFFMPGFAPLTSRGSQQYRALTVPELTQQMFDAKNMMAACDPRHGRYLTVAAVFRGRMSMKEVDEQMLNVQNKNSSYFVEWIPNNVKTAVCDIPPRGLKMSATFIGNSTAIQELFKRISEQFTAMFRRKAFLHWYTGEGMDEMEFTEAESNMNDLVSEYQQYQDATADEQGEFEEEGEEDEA
T1 sequence (P02550 whole entry): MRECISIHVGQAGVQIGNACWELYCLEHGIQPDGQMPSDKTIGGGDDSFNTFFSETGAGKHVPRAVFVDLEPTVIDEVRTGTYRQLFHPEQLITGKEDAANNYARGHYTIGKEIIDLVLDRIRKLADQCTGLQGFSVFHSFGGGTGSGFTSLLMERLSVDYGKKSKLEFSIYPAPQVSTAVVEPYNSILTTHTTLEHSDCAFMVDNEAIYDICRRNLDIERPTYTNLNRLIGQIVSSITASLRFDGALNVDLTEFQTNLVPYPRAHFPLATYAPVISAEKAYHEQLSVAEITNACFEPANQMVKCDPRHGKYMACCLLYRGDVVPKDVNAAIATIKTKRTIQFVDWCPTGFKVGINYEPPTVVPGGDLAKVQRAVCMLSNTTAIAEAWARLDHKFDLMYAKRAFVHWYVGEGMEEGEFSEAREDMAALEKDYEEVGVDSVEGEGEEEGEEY
Briefly: Tubulin polymerisation assay (fluorescence-based). The conditions noted are these: 10 µM, 37 °C. The format is biochemical. The procedure:
The tubulin polymerisation experimental protocol followed the method described in this literature.[28] The experimental was using fluorescence-based assay kit (Cytoskeleton, catalog no. BK011P). In Brief, 5 µL of test compounds was added to a 96-well plate, then mix with 50 µL of a solution containing porcine brain tubulin (2 mg mL^−1) in buffer with 20% glycerol and 1 mM GTP. A microplate reader (Varioskan™ LUX multimode microplate reader, Thermo Scientific™) was used to measure fluorescence intensity every 60 seconds for 60 minutes, with excitation at 360 nm and emission at 450 nm, maintained at 37 °C throughout the experiment.

Where only a bound is given, the exact number is not on record here.

For orientation: GI50 means the concentration that inhibits growth by half. Higher therefore signals lower sensitivity of the cells. Turning to `O=C(N/N=C/c1ccc[nH]1)c1[nH]c2ccc(Br)cc2c1-c1ccccc1` [Derivative 3a, (E)-N′-((1H-Pyrrol-2-yl)methylene)-5-bromo-3-phenyl-1H-indole-2-carbohydrazide], the GI50 with CCRF-CEM was 345 nM; in the experiment on SR, 160 nM; in the experiment with HOP-92, 992 nM; in the experiment on HT29, 329 nM; with SF-539, 202 nM; with MALME-3M, 320 nM. Moreover, the CC50 in the experiment on CCRF-CEM is more than 100 µM; in the experiment on SR, more than 100 µM; in the experiment with HOP-92 it was 26.4 µM; in the experiment with HT29, 9.31 µM; with SF-539, 14.6 µM; in the experiment on MALME-3M it was 30.9 µM. The “RFU in tubulin polymerization assay” value on porcine brain tubulin is given as approximately 55 arbitrary units.
As to `O=C(N/N=C/c1cc[nH]c1)c1[nH]c2ccc(Br)cc2c1-c1ccccc1` [Derivative 3b, (E)-N′-((1H-Pyrrol-3-yl)methylene)-5-bromo-3-phenyl-1H-indole-2-carbohydrazide], the GI50 turned out to be 821 nM in the experiment with CCRF-CEM; 1870 nM in the experiment on HOP-92; 680 nM with HT29; 869 nM with SF-539; 3460 nM with MALME-3M. The CC50 in the experiment on CCRF-CEM is more than 100 µM; with HOP-92, 50.3 µM; in the experiment on HT29 it was 34.5 µM; in the experiment with SF-539, 17 µM; with MALME-3M it was 48.3 µM. The “tubulin inhibition” value on porcine brain tubulin is on record as “weak tubulin inhibitors”.
For `Cn1cccc1/C=N/NC(=O)c1[nH]c2ccc(Br)cc2c1-c1ccccc1` [Derivative 3d, (E)-5-Bromo-N′-((1-methyl-1H-pyrrol-2-yl)methylene)-3-phenyl-1H-indole-2-carbohydrazide], the GI50 with CCRF-CEM turned out to be 429 nM; in the experiment with HOP-92, 429 nM; with HT29, 327 nM; with SF-539, 217 nM; with MALME-3M, 409 nM. Besides, the CC50 with CCRF-CEM, in the experiment on HOP-92, in the experiment with HT29, in the experiment with SF-539 and in the experiment with MALME-3M was more than 100 µM each time. In addition, on porcine brain tubulin, the “tubulin inhibition” value was “weak tubulin inhibitors”.
With `O=C(N/N=C/c1cc(Br)c[nH]1)c1[nH]c2ccc(Br)cc2c1-c1ccccc1` [Derivative 3e, (E)-5-Bromo-N′-((4-bromo-1H-pyrrol-2-yl)methylene)-3-phenyl-1H-indole-2-carbohydrazide], the GI50 was 341 nM in the experiment on CCRF-CEM; 1510 nM with HOP-92; 345 nM with HT29; 214 nM in the experiment with SF-539; 665 nM with MALME-3M. Moreover, the CC50 was more than 100 µM with CCRF-CEM; 26.3 µM with HOP-92; 8.24 µM in the experiment on HT29; 25.5 µM in the experiment with SF-539; 32.5 µM in the experiment with MALME-3M. For the same compound, the “RFU in tubulin polymerization assay” value at porcine brain tubulin is approximately 50 arbitrary units.
As for `O=C(N/N=C/c1[nH]ccc1Cl)c1[nH]c2ccc(Br)cc2c1-c1ccccc1` [Derivative 3g, (E)-5-Bromo-N′-((3-chloro-1H-pyrrol-2-yl)methylene)-3-phenyl-1H-indole-2-carbohydrazide], the GI50 with CCRF-CEM was determined as 1530 nM; in the experiment with HOP-92, 2790 nM; in the experiment on HT29, 401 nM; with SF-539 it was 378 nM; in the experiment on MALME-3M, 596 nM. Besides, the CC50 in the experiment on CCRF-CEM is more than 100 µM; in the experiment with HOP-92 it was 50.1 µM; in the experiment on HT29, 58.5 µM; with SF-539, 18.5 µM; in the experiment on MALME-3M it was 48.4 µM. Further, the “tubulin inhibition” value at porcine brain tubulin is “weak tubulin inhibitors”.
For `CCOC(=O)c1ccc(/C=N/NC(=O)c2[nH]c3ccc(Br)cc3c2-c2ccccc2)[nH]1` [Derivative 3i, Ethyl (E)-5-((2-(5-bromo-3-phenyl-1H-indole-2-carbonyl)hydrazono)methyl)-1H-pyrrole-2-carboxylate], the GI50 in the experiment on CCRF-CEM was determined as 3040 nM; with HOP-92 it was 2330 nM; with HT29, 2320 nM; in the experiment on SF-539, 1600 nM; with MALME-3M, 3830 nM. For the same compound, the CC50 with CCRF-CEM is more than 100 µM; in the experiment with HOP-92, more than 100 µM; with HT29, 22.9 µM; with SF-539, 26.2 µM; in the experiment with MALME-3M it was 54.8 µM.
As for `CCOC(=O)c1c[nH]c(/C=N/NC(=O)c2[nH]c3ccc(Br)cc3c2-c2ccccc2)c1` [Derivative 3j, Ethyl (E)-5-((2-(5-bromo-3-phenyl-1H-indole-2-carbonyl)hydrazono)methyl)-1H-pyrrole-3-carboxylate], the GI50 with CCRF-CEM was found to be 2410 nM; in the experiment on SR it was 948 nM; with HOP-92 it was 4560 nM; in the experiment with HT29 it was 2590 nM; with SF-539, 2260 nM; in the experiment with MALME-3M it was 6060 nM. Also, the CC50 was more than 100 µM in the experiment on CCRF-CEM; more than 100 µM in the experiment with SR; 58.6 µM in the experiment on HOP-92; 27.5 µM in the experiment with HT29; 19.4 µM with SF-539; 54.9 µM in the experiment on MALME-3M.
Take `O=C(N/N=C/c1ccc(C(=O)N2CCOCC2)[nH]1)c1[nH]c2ccc(Br)cc2c1-c1ccccc1` [Derivative 3n, (E)-5-Bromo-N′-((5-(morpholine-4-carbonyl)-1H-pyrrol-2-yl)methylene)-3-phenyl-1H-indole-2-carbohydrazide]: the 50% growth inhibitory concentration (GI50) in the experiment with CCRF-CEM worked out at 3450 nM; in the experiment with SR, 405 nM; in the experiment on HOP-92, 6140 nM; in the experiment with HT29, 2570 nM; in the experiment with SF-539, 2230 nM; in the experiment on MALME-3M, 11700 nM. Moreover, the CC50 in the experiment on CCRF-CEM is more than 100 µM; with SR it was 38.9 µM; in the experiment with HOP-92 it was more than 100 µM; in the experiment with HT29, 38.3 µM; in the experiment with SF-539, 34.9 µM; in the experiment on MALME-3M it was more than 100 µM.
`O=C(N/N=C/c1ccc([N+](=O)[O-])[nH]1)c1[nH]c2ccc(Br)cc2c1-c1ccccc1` [Derivative 3p, (E)-5-Bromo-N′-((5-nitro-1H-pyrrol-2-yl)methylene)-3-phenyl-1H-indole-2-carbohydrazide]: the GI50 in the experiment with CCRF-CEM came out at 382 nM; in the experiment with SR it was 354 nM; with HOP-92 it was 1790 nM; in the experiment with HT29, 550 nM; in the experiment with SF-539 it was 389 nM; in the experiment on MALME-3M, 3230 nM. The CC50 was more than 100 µM in the experiment with CCRF-CEM; more than 100 µM with SR; 47.3 µM with HOP-92; 43.9 µM in the experiment with HT29; 28.1 µM in the experiment on SF-539; 56.2 µM in the experiment on MALME-3M. Moreover, the “RFU in tubulin polymerization assay” value at porcine brain tubulin was approximately 50 arbitrary units.
In the case of `O=C(N/N=C/c1cc([N+](=O)[O-])c[nH]1)c1[nH]c2ccc(Br)cc2c1-c1ccccc1` [Derivative 3q, (E)-5-Bromo-N′-((4-nitro-1H-pyrrol-2-yl)methylene)-3-phenyl-1H-indole-2-carbohydrazide], the GI50 with CCRF-CEM came to 799 nM; in the experiment with SR, 405 nM; in the experiment on HOP-92 it was 11600 nM; with HT29 it was 469 nM; in the experiment on SF-539, 822 nM; in the experiment on MALME-3M, 830 nM. Besides, the CC50 in the experiment with CCRF-CEM, in the experiment on SR, in the experiment with HOP-92, in the experiment on HT29, with SF-539 and with MALME-3M was more than 100 µM each time. Also, the “tubulin inhibition” value on porcine brain tubulin is recorded as “no tubulin inhibition properties”.
In the case of `Cc1[nH]c(/C=N/NC(=O)c2[nH]c3ccc(Br)cc3c2-c2ccccc2)c(C)c1[N+](=O)[O-]` [Derivative 3r, (E)-5-Bromo-N′-((3,5-dimethyl-4-nitro-1H-pyrrol-2-yl)methylene)-3-phenyl-1H-indole-2-carbohydrazide], the concentration for 50% growth inhibition (GI50) turned out to be 1890 nM in the experiment on CCRF-CEM; 2040 nM in the experiment on SR; 2510 nM in the experiment on HOP-92; 1840 nM in the experiment on HT29; 3510 nM in the experiment with SF-539; 1990 nM with MALME-3M. In addition, the CC50 with CCRF-CEM is more than 100 µM; in the experiment with SR, more than 100 µM; with HOP-92, 45.8 µM; in the experiment on HT29 it was 6.67 µM; in the experiment with SF-539, 35.7 µM; in the experiment on MALME-3M it was 28.5 µM.
With `CCOC(=O)c1cc(/C=N/NC(=O)c2[nH]c3ccc(Br)cc3c2-c2ccccc2)c[nH]1` [Derivative 3v, Ethyl (E)-4-((2-(5-bromo-3-phenyl-1H-indole-2-carbonyl)hydrazono)methyl)-1H-pyrrole-2-carboxylate], the 50% growth inhibitory concentration (GI50) is 3700 nM in the experiment with CCRF-CEM; 7990 nM with HOP-92; 3330 nM in the experiment on HT29; 2020 nM in the experiment with SF-539; 4320 nM with MALME-3M. Moreover, the CC50 with CCRF-CEM was more than 100 µM; with HOP-92, more than 100 µM; in the experiment with HT29 it was 35.3 µM; with SF-539 it was 13.5 µM; with MALME-3M it was 52.8 µM.
